According to patent US11198695B2, “Fused ring derivative having MGAT-2 inhibitory activity” (Shionogi & Co., Ltd., priority 2017, dated 2021):
pIC50: −log10 of the molar value.

Target: recombinant human MGAT2 (Homo sapiens (Human), UniProt Q3SYC2)
Assay: Measurement of human MGAT2 inhibitory activity
Assay type: biochemical
Conditions: read-out: IC50 (concentration exhibiting 50% enzyme inhibition), Table 52
Experimental: A full-length human MGAT2 gene to which a Flag-tag had been added at the N-terminal was inserted into pFastBac (from Invitrogen). A recombinant baculovirus was produced in accordance with the protocol for a Bac-to-Bac baculovirus expression system (produced by Invitrogen), and Sf-9 cells were infected therewith. The cells were collected and sonicated, and then the membrane fraction was collected through centrifugation. Western blotting analysis with an anti-Flag antibody was performed for the membrane fraction to confirm expression, and the membrane fraction was used as a recombinant human MGAT2 enzyme solution.
Solutions of the compounds of the present invention in DMSO were each aliquoted into 0.2-μL portions in a 384-well polystyrene microplate produced by Corning Incorporated, and 5 μL of an enzyme solution prepared with an assay buffer (100 mmol/L phosphate buffer (pH 7.4) containing 2 mmol/L DTT) and 5 μL of a substrate solution (100 mmol/L phosphate buffer (pH 7.4), 30 μmol/L 2-Oleoylglycerol, 10 μmol/L Oleoyl-CoA) were added thereto, and the resultant was stirred and centrifuged, and incubated in a moist chamber at room temperature for 1 hour. After enzymatic reaction, 50 μL of a quenching solution (containing 0.2 μmol/L Diolein-d5, 0.4% formic acid, and 50% isopropanol) containing Internal Standard (IS) was added to terminate the reaction, and the resultant was sealed in a plate produced by Shimadzu GLC Ltd., and then stirred and centrifuged, and measurement was performed by using an electrospray ionization method with a RapidFire360 and Agilent 6550 Q-TOF mass spectrometer. Diolein as a reaction product (P) of 2-Oleoylglycerol as the substrate and an ammonium adduct ion of the IS were detected, and the peak intensity ratio, P/IS, was calculated from the peak heights to evaluate the inhibitory activity. Inhibitory activities with/without addition of enzyme were defined as Control (+)/Control (−), respectively, and the respective % inhibitions were defined as 0% inhibition and 100% inhibition. The inhibitory activity was calculated from formula below with TIBCO Spotfire (produced by TIBCO Software Inc.): Inhibitory activity (%)=[1−{Sample−Control(−)}/{Control(+)−Control(−)}]*100 where Sample indicates a peak intensity ratio: P/IS, when the compound of the present invention was added.

Sequence of recombinant human MGAT2 (Q3SYC2 whole entry): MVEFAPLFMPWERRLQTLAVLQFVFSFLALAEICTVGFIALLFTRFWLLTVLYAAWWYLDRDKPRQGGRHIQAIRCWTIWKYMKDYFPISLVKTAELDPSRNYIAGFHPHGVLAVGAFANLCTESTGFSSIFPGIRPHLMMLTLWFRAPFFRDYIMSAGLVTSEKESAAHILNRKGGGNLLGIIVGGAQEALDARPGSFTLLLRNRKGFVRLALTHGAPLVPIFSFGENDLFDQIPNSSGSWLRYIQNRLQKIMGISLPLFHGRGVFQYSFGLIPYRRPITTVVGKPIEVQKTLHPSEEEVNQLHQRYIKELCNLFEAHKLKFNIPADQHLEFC

Structure (SMILES)	pIC50
CS(=O)(=O)CC(=O)Nc1c2c(nn1-c1ccc(Br)cn1)C[C@]1(CCc3cc(OCC(F)(F)F)ccc31)NC2=O [Compound I-91]	8.92
O=C1N[C@@]2(CCc3cc(OCC(F)(F)F)ccc32)Cc2nn(CCC3CC3)c(CNC(=O)C3(O)CC3)c21 [Compound I-156]	6.04
O=C(Nc1c2c(nn1CCC1CC1)C[C@]1(CCc3cc(OCC(F)(F)F)ccc31)NC2=O)c1ncccn1 [Compound I-215]	6.38
CS(=O)(=O)CC(=O)Nc1c2c(nn1CCCCC(F)(F)F)C[C@]1(CCc3cc(OCC(F)(F)F)ccc31)NC2=O [Compound I-255]	7.77
CS(=O)(=O)CC(=O)Nc1c2c(nn1CCC1CC1)C[C@@]1(CCc3cc(OCC(F)(F)F)cc(F)c31)NC2=O [Compound I-249]	8.46
N#CCC(=O)Nc1c2c(nn1CCC1CC1)C[C@]1(CCc3cc(OCCCC(F)(F)F)ccc31)NC2=O [Compound I-25]	7.31
CS(=O)(=O)CC(=O)Nc1c2c(nn1CCCC#N)C[C@]1(CCc3cc(OCC(F)(F)F)ccc31)NC2=O [Compound I-254]	7.02
CS(=O)(=O)CC(=O)Nc1c2c(nn1CCC1CC1)C[C@]1(CCc3cc(OCCCC(F)(F)F)ccc31)NC2=O [Compound I-2]	8.87
Cc1cc(C)cc(-n2nc3c(c2NC(=O)CS(C)(=O)=O)C(=O)N[C@@]2(CCc4cc(OCC(F)(F)F)ccc42)C3)c1 [Compound I-129]	7.58
CS(=O)(=O)CC(=O)Nc1c2c(nn1-c1ccc(C#N)cn1)C[C@@]1(CCc3cc(N4CC(C(F)(F)F)C4)ccc31)NC2=O [Compound I-122]	8.74
COCCCn1nc2c(c1NC(=O)CS(C)(=O)=O)C(=O)N[C@@]1(CCc3cc(OCC(F)(F)F)ccc31)C2 [Compound I-252]	7.89
Cc1cnc(-n2nc3c(c2NC(=O)CS(C)(=O)=O)C(=O)N[C@@]2(CCc4cc(OCC(F)(F)F)ccc42)C3)cn1 [Compound I-264]	7.07
O=C(COC(F)(F)F)Nc1c2c(nn1CCC1CC1)C[C@]1(CCc3cc(OCCCC(F)(F)F)ccc31)NC2=O [Compound I-32]	7.77
CS(=O)(=O)CC(=O)Nc1c2c(nn1-c1ccc(C#N)cc1)C[C@]1(CCc3cc(F)cc(F)c31)NC2=O [Compound I-164]	7.07
CCS(=O)(=O)NCc1c2c(nn1CCC1CC1)C[C@]1(CCc3cc(OCC(F)(F)F)ccc31)NC2=O [Compound I-194]	6.34
CS(=O)(=O)CC(=O)Nc1c2c(nn1-c1ccncn1)C[C@@]1(CCc3cc(OCC(F)(F)F)ccc31)NC2=O [Compound I-272]	7.70
CS(=O)(=O)CC(=O)Nc1c2c(nn1Cc1nc(C(F)(F)F)cs1)C[C@]1(CCc3cc(OCC(F)(F)F)ccc31)NC2=O [Compound I-192]	8.19
CS(=O)(=O)CC(=O)Nc1c2c(nn1-c1ccc(C#N)cc1)C[C@]1(CCc3cc(OCC(F)(F)F)ccc31)NC2=O [Compound I-133]	7.85
CS(=O)(=O)CC(=O)Nc1c2c(nn1-c1ccc3c(c1)OC(F)(F)O3)C[C@]1(CCc3cc(OCC(F)(F)F)ccc31)NC2=O [Compound I-247]	7.08
CC(C)(C)S(=O)(=O)NC(=O)c1c2c(nn1CCC1CC1)C[C@]1(CCc3cc(OCC(F)(F)F)ccc31)NC2=O [Compound I-118]	6.43
O=C(Nc1c2c(nn1CCC1CC1)C[C@]1(CCc3cc(OCC(F)(F)F)ccc31)NC2=O)c1ncco1 [Compound I-225]	7.40
COCCCS(=O)(=O)NC(=O)c1c2c(nn1CCC1CC1)C[C@]1(CCc3cc(OCC(F)(F)F)ccc31)NC2=O [Compound I-114]	6.96
CC1(NC(=O)c2c3c(nn2CCC2CC2)C[C@]2(CCc4cc(OCC(F)(F)F)ccc42)NC3=O)COC1 [Compound I-88]	6.57
O=C(Nc1c2c(nn1CCC1CC1)C[C@]1(CCc3cc(OCC(F)(F)F)ccc31)NC2=O)c1cncs1 [Compound I-228]	7.55
C=C(C)c1ccc(-n2nc3c(c2NC(=O)CS(C)(=O)=O)C(=O)N[C@@]2(CCc4cc(OCC(F)(F)F)ccc42)C3)nc1 [Compound I-233]	7.96

Same assay, conditions: read-out: IC50 (concentration exhibiting 50% enzyme inhibition), Table 53

Structure (SMILES)	pIC50
COC1(C)CN(c2ccc3c(c2)CC[C@@]32Cc3nn(CCC4CC4)c(NC(=O)CS(C)(=O)=O)c3C(=O)N2)C1 [II-44]	7.29
CNC(=O)CNC(=O)c1c2c(nn1-c1ccc(C#N)cn1)C[C@]1(CCc3cc(OCC(F)(F)F)ccc31)NC2=O [II-181]	7.54
CS(=O)(=O)CC(=O)Nc1c2c(nn1-c1ccc(C(F)F)cc1)C[C@]1(CCOc3cc(OCC(F)(F)F)ccc31)NC2=O [II-298]	> 9.00
CS(=O)(=O)CC(=O)Nc1c2c(nn1CCC1CC1)C[C@@]1(CCc3cc(N4CC(c5ccccc5)C4)ccc31)NC2=O [II-33]	8.48
Cc1cc(-n2nc3c(c2NC(=O)CS(C)(=O)=O)C(=O)N[C@@]2(CCc4cc(OCC(F)(F)F)ccc42)C3)on1 [II-169]	8.13
CS(=O)(=O)CC(=O)Nc1c2c(nn1-c1ccc(C#N)cn1)CC1(CN(Cc3ccc(C(F)(F)F)cc3)C1)NC2=O [II-16]	7.55
CS(=O)(=O)CC(=O)Nc1c2c(nn1CCCC(F)(F)F)C[C@@]1(NC2=O)c2ccc(OCC(F)(F)F)cc2CC1(F)F [II-85]	7.34
N#Cc1ccc(-n2nc3c(c2C(=O)NCC2CCO2)C(=O)N[C@@]2(CCc4cc(OCC(F)(F)F)ccc42)C3)nc1 (some centres unmarked) [II-187]	7.61
CC(F)(F)COc1ccc2c(c1)CC[C@@]21Cc2nn(CCCOC(F)(F)F)c(NC(=O)CS(C)(=O)=O)c2C(=O)N1 [II-255]	8.56
CS(=O)(=O)CC(=O)Nc1c2c(nn1CCCC(F)(F)F)C[C@]1(CCOc3cc(OCC(F)(F)F)ccc31)NC2=O [II-65]	8.72
CS(=O)(=O)CC(=O)Nc1c2c(nn1CCC1CC1)C[C@@]1(CCOc3cc(OCC(F)(F)F)ccc31)NC2=O [II-9]	8.02
N#Cc1ccc(-n2nc3c(c2C(=O)NCCSC(F)(F)F)C(=O)N[C@@]2(CCc4cc(OCC(F)(F)F)ccc42)C3)nc1 [II-185]	7.55
Cc1ccc(-n2nc3c(c2C(=O)NCC#N)C(=O)N[C@@]2(CCc4cc(OCC(F)(F)F)ccc42)C3)cc1F [II-219]	7.08
Cc1cc(-n2nc3c(c2C(=O)NCC(N)=O)C(=O)N[C@@]2(CCc4cc(OCC(F)(F)F)ccc42)C3)no1 [II-253]	8.37
N#Cc1ccc(-n2nc3c(c2C(=O)NCCF)C(=O)N[C@@]2(CCc4cc(OCC(F)(F)F)ccc42)C3)nc1 [II-178]	7.22
Cc1ccc(-n2nc3c(c2NC(=O)CC#N)C(=O)N[C@@]2(CCOc4cc(OCC(F)(F)F)ccc42)C3)nc1 [II-263]	7.40

Structure (SMILES)	pIC50
Cc1ccc(-n2nc3c(c2C(=O)NCC(N)=O)C(=O)N[C@@]2(CCc4cc(OCC(F)(F)F)ccc42)C3)nc1 [II-196]	7.73
CS(=O)(=O)CC(=O)Nc1c2c(nn1CCC1CC1)C[C@@]1(CCc3cc(N4CC(F)C4)ccc31)NC2=O [II-34]	7.39
NS(=O)(=O)CCNC(=O)c1c2c(nn1CCCOC(F)F)C[C@]1(CCc3cc(OCC(F)(F)F)ccc31)NC2=O [II-264]	7.79
N#Cc1ccc(-n2nc3c(c2C(=O)NCC(O)c2ccccn2)C(=O)N[C@@]2(CCc4cc(OCC(F)(F)F)ccc42)C3)nc1 (some centres unmarked) [II-129]	6.69
CS(C)(=O)=NCCNC(=O)c1c2c(nn1-c1ccc(C#N)cn1)C[C@]1(CCc3cc(OCC(F)(F)F)ccc31)NC2=O [II-182]	6.32
O=C1N[C@@]2(CCc3cc(OCC(F)(F)F)ccc32)Cc2nn(CCCOC(F)F)c(C(=O)NCC3(O)CC3)c21 [II-265]	7.26
COC(=O)CC1CN(c2ccc3c(c2)CC[C@@]32Cc3nn(CCC4CC4)c(NC(=O)CS(C)(=O)=O)c3C(=O)N2)C1 [II-45]	7.01
Cc1ccc(-n2nc3c(c2C(=O)NCC2(CO)CC2)C(=O)N[C@@]2(CCc4cc(OCC(F)(F)F)ccc42)C3)nc1 [II-198]	8.38
CS(=O)(=O)CC(=O)Nc1c2c(nn1CCc1ccccc1F)C[C@]1(CCc3cc(OCC(F)(F)F)ccc31)NC2=O [II-13]	7.57
Cc1ccc(-n2nc3c(c2C(=O)NS(=O)(=O)C2CC2)C(=O)N[C@@]2(CCc4cc(OCC(F)(F)F)ccc42)C3)cc1F [II-226]	7.80
CS(=O)(=O)CC(=O)Nc1c2c(nn1CCC1CC1)C[C@@]1(CCc3cc(N4CC5(COC5)C4)ccc31)NC2=O [II-50]	6.70
Cc1ccc(-n2nc3c(c2C(=O)NS(=O)(=O)Cc2ccccc2)C(=O)N[C@@]2(CCc4cc(OCC(F)(F)F)ccc42)C3)nc1 [II-213]	7.23
CS(=O)(=O)CC(=O)Nc1c2c(nn1CCCOC(F)(F)F)C[C@@]1(CCc3cc(OCC(F)(F)C(F)F)ccc31)NC2=O [II-237]	8.46
N#Cc1ccc(-n2nc3c(c2C(=O)NS(=O)(=O)Cc2ccccc2)C(=O)N[C@@]2(CCc4cc(OCC(F)(F)F)ccc42)C3)nc1 [II-218]	7.17
Cc1ccc(-n2nc3c(c2NC(=O)CS(C)(=O)=O)C(=O)N[C@@]2(CCc4cc(OCC(C)(F)F)ccc42)C3)nc1 [II-157]	8.42
